{"source": "ChEMBL document CHEMBL4251622", "about": "“Design, synthesis, and biological evaluation of polo-like kinase 1/eukaryotic elongation factor 2 kinase (PLK1/EEF2K) dual inhibitors for regulating breast cancer cells apoptosis and autophagy” (Eur J Med Chem, 2018)", "key": {"[1]": {"biological_target": "Fibroblast growth factor receptor 1 (Homo sapiens) (UniProt P11362)", "sequence (P11362 22-822 limits assumed)": "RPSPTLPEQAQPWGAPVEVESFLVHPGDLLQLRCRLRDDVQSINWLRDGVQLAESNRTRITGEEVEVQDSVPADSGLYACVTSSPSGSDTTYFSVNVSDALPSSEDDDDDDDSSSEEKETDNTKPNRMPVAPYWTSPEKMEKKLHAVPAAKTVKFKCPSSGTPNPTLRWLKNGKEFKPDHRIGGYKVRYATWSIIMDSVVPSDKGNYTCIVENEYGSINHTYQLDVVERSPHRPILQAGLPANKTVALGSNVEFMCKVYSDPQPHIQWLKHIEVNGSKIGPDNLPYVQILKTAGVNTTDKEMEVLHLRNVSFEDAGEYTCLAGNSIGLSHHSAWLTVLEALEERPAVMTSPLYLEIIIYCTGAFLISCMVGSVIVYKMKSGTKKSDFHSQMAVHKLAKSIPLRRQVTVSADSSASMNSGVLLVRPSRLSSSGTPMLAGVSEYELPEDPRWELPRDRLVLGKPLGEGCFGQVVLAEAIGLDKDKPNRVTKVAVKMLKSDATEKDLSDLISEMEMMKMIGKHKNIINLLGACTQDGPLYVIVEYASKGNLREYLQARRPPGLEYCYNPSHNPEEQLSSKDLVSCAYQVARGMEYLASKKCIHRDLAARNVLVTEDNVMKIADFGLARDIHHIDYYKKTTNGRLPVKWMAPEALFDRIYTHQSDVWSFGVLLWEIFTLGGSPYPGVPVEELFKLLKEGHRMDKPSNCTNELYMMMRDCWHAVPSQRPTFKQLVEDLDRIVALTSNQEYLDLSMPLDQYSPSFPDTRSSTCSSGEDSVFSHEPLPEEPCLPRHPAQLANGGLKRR", "experiment": "Inhibition of wild-type human partial length FGFR1 (P357 to V669 residues) expressed in bacterial expression system assessed as residual activity at 1 uM by Kinomescan method relative to control"}, "ZR-75-1": {"test_system": "ZR-75-1", "experiment": "Cytotoxicity against human ZR-75-1 cells after 24 hrs by MTT assay", "format": "functional, cell-based"}, "[2]": {"biological_target": "Serine/threonine-protein kinase pim-2 (Homo sapiens) (UniProt Q9P1W9)", "experiment": "Inhibition of wild-type human partial length PIM2 (M1 to E291 residues) expressed in bacterial expression system assessed as residual activity at 1 uM by Kinomescan method relative to control"}, "[3]": {"biological_target": "Mitogen-activated protein kinase 3 (Homo sapiens) (UniProt P27361)", "experiment": "Inhibition of wild-type human full length ERK1 (M1 to P379 residues) expressed in bacterial expression system assessed as residual activity at 1 uM by Kinomescan method relative to control"}, "[4]": {"biological_target": "Dual specificity mitogen-activated protein kinase kinase 1 (Homo sapiens) (UniProt Q02750)", "experiment": "Inhibition of wild-type human full length MEK1 (M1 to V393 residues) expressed in mammalian expression system assessed as residual activity at 1 uM by Kinomescan method relative to control"}, "[5]": {"biological_target": "Serine/threonine-protein kinase PLK1 (Homo sapiens, UniProt P53350)", "experiment": "Inhibition of full length human PLK1 at 20 uM using casein as substrate after 40 mins in presence of [gamma-33P]-ATP by radiometric assay relative to control"}, "[6]": {"biological_target": "Serine/threonine-protein kinase PAK 1 (Homo sapiens) (UniProt Q13153)", "sequence (Q13153 whole entry, the tested form may be a part)": "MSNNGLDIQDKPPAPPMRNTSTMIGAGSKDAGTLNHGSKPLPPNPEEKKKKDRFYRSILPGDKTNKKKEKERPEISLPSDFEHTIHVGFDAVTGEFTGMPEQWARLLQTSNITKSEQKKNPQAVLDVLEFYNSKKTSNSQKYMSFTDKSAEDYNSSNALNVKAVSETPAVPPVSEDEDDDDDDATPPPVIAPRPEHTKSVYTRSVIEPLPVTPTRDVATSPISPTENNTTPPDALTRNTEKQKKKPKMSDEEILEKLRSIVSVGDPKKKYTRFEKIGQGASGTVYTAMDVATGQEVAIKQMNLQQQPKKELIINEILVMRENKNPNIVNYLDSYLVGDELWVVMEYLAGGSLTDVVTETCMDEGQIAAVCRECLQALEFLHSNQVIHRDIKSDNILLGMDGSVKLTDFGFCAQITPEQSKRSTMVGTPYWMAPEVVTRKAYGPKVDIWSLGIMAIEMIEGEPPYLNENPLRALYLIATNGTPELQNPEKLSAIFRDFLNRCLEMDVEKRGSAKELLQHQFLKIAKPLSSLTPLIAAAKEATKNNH", "experiment": "Inhibition of wild-type human partial length PAK1 (S149 to H545 residues) expressed in bacterial expression system assessed as residual activity at 1 uM by Kinomescan method relative to control"}, "[7]": {"biological_target": "Tyrosine-protein kinase receptor UFO (Homo sapiens) (UniProt P30530)", "experiment": "Inhibition of wild-type human partial length AXL (R497 to Y821 residues) expressed in bacterial expression system assessed as residual activity at 1 uM by Kinomescan method relative to control"}, "[8]": {"biological_target": "Atypical kinase COQ8A, mitochondrial (Homo sapiens) (UniProt Q8NI60)", "experiment": "Inhibition of wild-type human […] ADCK3 (M280 to Q647 residues) expressed in bacterial expression system assessed as residual activity at 1 uM by Kinomescan method relative to control"}, "BT-483 [9]": {"test_system": "BT-483", "experiment": "Cell cycle arrest in human BT-483 cells assessed as accumulation at sub-G1 phase at 5 to 10 uM after 24 to 72 hrs", "format": "functional, cell-based"}, "BT-483 [10]": {"test_system": "BT-483", "experiment": "Downregulation of Bcl2 protein expression in human BT-483 cells at 5 to 10 uM by Western blot analysis", "format": "functional, cell-based"}, "[11]": {"test_system": "Mast/stem cell growth factor receptor Kit (Homo sapiens), P10721 [V559D,T670I]", "experiment": "Inhibition of human partial length KIT V559D/T670I double mutant (Y545 to D952 residues) expressed in bacterial expression system assessed as residual activity at 1 uM by Kinomescan method relative to control"}, "[12]": {"biological_target": "Receptor tyrosine-protein kinase erbB-2 (Homo sapiens) (UniProt P04626)", "sequence (P04626 whole entry, the tested form may be a part)": "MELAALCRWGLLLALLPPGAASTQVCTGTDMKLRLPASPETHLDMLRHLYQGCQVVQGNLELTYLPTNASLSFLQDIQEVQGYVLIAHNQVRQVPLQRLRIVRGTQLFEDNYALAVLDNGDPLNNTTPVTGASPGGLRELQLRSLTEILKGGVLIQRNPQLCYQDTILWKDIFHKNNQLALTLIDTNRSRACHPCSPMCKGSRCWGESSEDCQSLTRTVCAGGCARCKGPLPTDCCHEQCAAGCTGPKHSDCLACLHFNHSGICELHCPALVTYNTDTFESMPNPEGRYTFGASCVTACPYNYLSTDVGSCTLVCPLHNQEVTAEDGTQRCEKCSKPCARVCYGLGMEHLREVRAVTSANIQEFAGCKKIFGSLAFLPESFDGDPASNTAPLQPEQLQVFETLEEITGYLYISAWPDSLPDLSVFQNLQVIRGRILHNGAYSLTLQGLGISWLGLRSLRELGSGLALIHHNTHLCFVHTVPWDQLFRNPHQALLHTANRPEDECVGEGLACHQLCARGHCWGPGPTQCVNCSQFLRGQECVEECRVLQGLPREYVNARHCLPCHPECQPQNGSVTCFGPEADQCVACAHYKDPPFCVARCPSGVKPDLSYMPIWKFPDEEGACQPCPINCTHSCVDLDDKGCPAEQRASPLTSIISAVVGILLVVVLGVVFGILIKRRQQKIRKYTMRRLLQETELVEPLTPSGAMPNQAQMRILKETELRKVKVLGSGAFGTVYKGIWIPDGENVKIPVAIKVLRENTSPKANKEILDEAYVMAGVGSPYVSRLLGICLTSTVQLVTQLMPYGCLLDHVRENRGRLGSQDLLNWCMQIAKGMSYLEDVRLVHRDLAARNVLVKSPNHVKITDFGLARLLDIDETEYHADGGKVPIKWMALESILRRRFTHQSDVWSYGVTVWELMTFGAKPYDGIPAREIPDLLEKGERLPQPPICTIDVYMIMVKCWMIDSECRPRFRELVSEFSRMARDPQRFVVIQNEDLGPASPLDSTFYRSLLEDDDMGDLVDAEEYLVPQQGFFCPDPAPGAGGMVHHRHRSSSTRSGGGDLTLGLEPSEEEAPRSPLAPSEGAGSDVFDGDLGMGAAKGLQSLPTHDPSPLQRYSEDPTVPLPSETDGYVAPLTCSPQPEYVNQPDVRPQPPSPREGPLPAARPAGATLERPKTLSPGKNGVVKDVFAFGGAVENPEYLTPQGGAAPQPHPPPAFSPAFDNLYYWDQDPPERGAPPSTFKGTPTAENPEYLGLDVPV", "experiment": "Inhibition of wild-type human partial length ERBB2 (K646 to V1225 residues) expressed in mammalian expression system assessed as residual activity at 1 uM by Kinomescan method relative to control"}, "[13]": {"biological_target": "Fibroblast growth factor receptor 4 (Homo sapiens) (UniProt P22455)", "sequence (P22455 22-802 limits assumed)": "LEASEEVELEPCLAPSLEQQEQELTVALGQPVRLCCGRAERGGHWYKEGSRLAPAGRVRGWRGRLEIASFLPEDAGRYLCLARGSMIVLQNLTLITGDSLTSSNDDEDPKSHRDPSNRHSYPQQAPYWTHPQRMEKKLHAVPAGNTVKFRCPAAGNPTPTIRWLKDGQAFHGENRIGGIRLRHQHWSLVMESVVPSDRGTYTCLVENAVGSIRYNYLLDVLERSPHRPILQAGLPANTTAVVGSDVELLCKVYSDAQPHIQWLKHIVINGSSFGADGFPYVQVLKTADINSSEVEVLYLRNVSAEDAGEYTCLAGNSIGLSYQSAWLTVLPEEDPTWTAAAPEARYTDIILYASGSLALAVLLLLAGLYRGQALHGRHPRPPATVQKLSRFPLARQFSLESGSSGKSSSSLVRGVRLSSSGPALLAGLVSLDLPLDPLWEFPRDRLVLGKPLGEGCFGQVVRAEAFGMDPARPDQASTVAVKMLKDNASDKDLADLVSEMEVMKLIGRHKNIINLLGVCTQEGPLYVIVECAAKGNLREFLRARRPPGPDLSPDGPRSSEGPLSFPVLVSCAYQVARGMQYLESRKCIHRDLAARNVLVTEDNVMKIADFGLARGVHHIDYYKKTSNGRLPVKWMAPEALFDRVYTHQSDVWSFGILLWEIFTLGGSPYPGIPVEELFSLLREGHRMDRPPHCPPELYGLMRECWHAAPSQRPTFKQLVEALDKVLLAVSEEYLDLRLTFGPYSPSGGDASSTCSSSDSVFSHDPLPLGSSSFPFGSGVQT", "experiment": "Inhibition of wild-type human partial length FGFR4 (G402 to E713 residues) expressed in bacterial expression system assessed as residual activity at 1 uM by Kinomescan method relative to control"}, "BT-483 [14]": {"test_system": "BT-483", "experiment": "Induction of apoptosis in human BT-483 cells assessed as early apoptotic cells at 10 uM by Annexin V-FITC/propidium iodide staining based flow cytometry (reference value: 2.01%)", "format": "functional"}, "[15]": {"biological_target": "Mitogen-activated protein kinase 8 (Homo sapiens) (UniProt P45983)", "experiment": "Inhibition of wild-type human full length JNK1 (M1 to Q384 residues) expressed in mammalian expression system assessed as residual activity at 1 uM by Kinomescan method relative to control"}, "BT-483 [16]": {"test_system": "BT-483", "experiment": "Induction of apoptosis in human BT-483 cells assessed as early apoptotic cells at 5 uM by Annexin V-FITC/propidium iodide staining based flow cytometry (reference value: 2.01%)", "format": "functional"}, "BT-483 [17]": {"test_system": "BT-483", "experiment": "Induction of apoptosis in human BT-483 cells by Annexin V-FITC/propidium iodide staining based flow cytometry", "format": "functional, cell-based"}, "BT-483 [18]": {"test_system": "BT-483", "experiment": "Upregulation of cytochrome-c protein expression in human BT-483 cells at 5 to 10 uM by Western blot analysis", "format": "functional, cell-based"}, "[19]": {"biological_target": "Cyclin-dependent kinase 3 (Homo sapiens) (UniProt Q00526)", "experiment": "Inhibition of wild-type human full length CDK3 (M1 to H305 residues) expressed in bacterial expression system assessed as residual activity at 1 uM by Kinomescan method relative to control"}, "[20]": {"test_system": "Mast/stem cell growth factor receptor Kit (Homo sapiens), P10721 [D816V]", "experiment": "Inhibition of human partial length KIT D816V mutant (I571 to D952 residues) expressed in bacterial expression system assessed as residual activity at 1 uM by Kinomescan method relative to control"}, "[21]": {"biological_target": "Inhibitor of nuclear factor kappa-B kinase subunit alpha (Homo sapiens) (UniProt O15111)", "sequence (O15111 whole entry, the tested form may be a part)": "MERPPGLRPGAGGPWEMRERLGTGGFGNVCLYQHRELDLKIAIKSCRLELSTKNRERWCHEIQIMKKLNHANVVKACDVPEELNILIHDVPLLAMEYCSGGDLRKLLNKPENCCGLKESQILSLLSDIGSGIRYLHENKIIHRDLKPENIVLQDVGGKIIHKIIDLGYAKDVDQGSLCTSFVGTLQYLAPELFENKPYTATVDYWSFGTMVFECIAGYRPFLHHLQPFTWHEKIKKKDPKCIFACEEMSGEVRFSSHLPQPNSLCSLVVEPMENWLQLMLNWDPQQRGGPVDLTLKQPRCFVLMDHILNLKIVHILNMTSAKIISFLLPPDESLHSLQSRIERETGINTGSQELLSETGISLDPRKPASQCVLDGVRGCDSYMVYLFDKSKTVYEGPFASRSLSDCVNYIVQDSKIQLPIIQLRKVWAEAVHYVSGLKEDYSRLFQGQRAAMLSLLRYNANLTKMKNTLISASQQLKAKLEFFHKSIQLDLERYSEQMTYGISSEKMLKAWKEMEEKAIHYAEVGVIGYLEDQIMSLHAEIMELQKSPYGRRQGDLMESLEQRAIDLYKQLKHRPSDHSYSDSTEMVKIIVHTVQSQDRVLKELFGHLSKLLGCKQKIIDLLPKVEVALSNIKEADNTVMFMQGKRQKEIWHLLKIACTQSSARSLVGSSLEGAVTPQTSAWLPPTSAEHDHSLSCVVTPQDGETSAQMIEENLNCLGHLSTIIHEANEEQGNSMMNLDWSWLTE", "experiment": "Inhibition of wild-type human full length IKK-alpha (M1 to E745 residues) expressed in mammalian expression system assessed as residual activity at 1 uM by Kinomescan method relative to control"}, "[22]": {"biological_target": "Ribosomal protein S6 kinase alpha-1 (Homo sapiens) (UniProt Q15418)", "experiment": "Inhibition of wild-type human partial length N-terminal RSK1 Kinase domain 1 (M1 to E388 residues) expressed in bacterial expression system assessed as residual activity at 1 uM by Kinomescan method relative to control"}, "BT-483 [23]": {"test_system": "BT-483", "experiment": "Cytotoxicity against human BT-483 cells after 24 hrs by MTT assay", "format": "functional, cell-based", "conditions": "BT-483, 24 h"}, "[24]": {"biological_target": "Serine/threonine-protein kinase Nek1 (Homo sapiens) (UniProt Q96PY6)", "experiment": "Inhibition of wild-type human partial length NEK1 (M1 to K278 residues) expressed in bacterial expression system assessed as residual activity at 1 uM by Kinomescan method relative to control"}, "[25]": {"biological_target": "Serine/threonine-protein kinase RIO2 (Homo sapiens) (UniProt Q9BVS4)", "experiment": "Inhibition of wild-type human partial length RIOK2 (M1 to D313 residues) expressed in mammalian expression system assessed as residual activity at 1 uM by Kinomescan method relative to control"}, "[26]": {"biological_target": "Mitogen-activated protein kinase 6 (Homo sapiens) (UniProt Q16659)", "sequence (Q16659 whole entry, the tested form may be a part)": "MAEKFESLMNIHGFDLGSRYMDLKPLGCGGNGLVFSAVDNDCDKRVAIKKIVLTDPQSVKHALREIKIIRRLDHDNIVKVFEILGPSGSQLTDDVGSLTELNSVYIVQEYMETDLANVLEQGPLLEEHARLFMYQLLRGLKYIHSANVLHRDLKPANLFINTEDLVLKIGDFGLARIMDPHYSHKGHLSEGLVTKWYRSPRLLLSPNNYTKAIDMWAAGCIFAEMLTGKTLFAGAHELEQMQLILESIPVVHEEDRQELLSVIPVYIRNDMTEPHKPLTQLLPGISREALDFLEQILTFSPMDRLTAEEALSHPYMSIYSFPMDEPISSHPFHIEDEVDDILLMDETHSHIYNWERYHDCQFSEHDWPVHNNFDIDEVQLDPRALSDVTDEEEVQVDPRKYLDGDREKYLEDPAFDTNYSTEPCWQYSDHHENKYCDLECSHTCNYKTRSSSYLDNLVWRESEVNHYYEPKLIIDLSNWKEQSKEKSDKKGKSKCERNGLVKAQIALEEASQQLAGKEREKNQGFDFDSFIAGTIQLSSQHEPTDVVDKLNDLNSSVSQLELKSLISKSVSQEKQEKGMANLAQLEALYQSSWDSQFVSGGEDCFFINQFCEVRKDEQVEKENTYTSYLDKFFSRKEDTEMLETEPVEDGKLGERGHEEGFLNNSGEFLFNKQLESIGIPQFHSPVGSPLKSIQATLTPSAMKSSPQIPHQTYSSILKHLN", "experiment": "Inhibition of wild-type human partial length ERK3 (M1 to P413 residues) expressed in bacterial expression system assessed as residual activity at 1 uM by Kinomescan method relative to control"}}, "note": "The source made the active and inactive calls. The calls are words filed in the database; no cut-off is given here."}
{"molecule": "CCNc1cc(-c2ccc(NC(=O)Nc3cccc(Cl)c3)cc2C(F)(F)F)ccn1", "values": [{"measurement": "Activity", "setting": "[1]", "result": 91, "unit": "%"}, {"measurement": "Activity", "setting": "ZR-75-1", "result": "Active"}, {"measurement": "Activity", "setting": "[2]", "result": 88, "unit": "%"}, {"measurement": "Activity", "setting": "[3]", "result": 67, "unit": "%"}, {"measurement": "Activity", "setting": "[4]", "result": 96, "unit": "%"}, {"measurement": "inhibition", "setting": "[5]", "result": 94.9, "unit": "%"}, {"measurement": "Activity", "setting": "[6]", "result": 70, "unit": "%"}, {"measurement": "Activity", "setting": "[7]", "result": 99, "unit": "%"}, {"measurement": "Activity", "setting": "[8]", "result": 94, "unit": "%"}, {"measurement": "Activity", "setting": "BT-483 [9]", "result": "Active"}, {"measurement": "Activity", "setting": "BT-483 [10]", "result": "Active"}, {"measurement": "Activity", "setting": "[11]", "result": 93, "unit": "%"}, {"measurement": "Activity", "setting": "[12]", "result": 98, "unit": "%"}, {"measurement": "Activity", "setting": "[13]", "result": 95, "unit": "%"}, {"measurement": "Activity", "setting": "BT-483 [14]", "result": 8.72, "unit": "%"}, {"measurement": "Activity", "setting": "[15]", "result": 75, "unit": "%"}, {"measurement": "Activity", "setting": "BT-483 [16]", "result": 8.64, "unit": "%"}, {"measurement": "Activity", "setting": "BT-483 [17]", "result": "Dose-dependent effect"}, {"measurement": "Activity", "setting": "BT-483 [18]", "result": "Active"}, {"measurement": "Activity", "setting": "[19]", "result": 87, "unit": "%"}, {"measurement": "Activity", "setting": "[20]", "result": 84, "unit": "%"}, {"measurement": "Activity", "setting": "[21]", "result": 95, "unit": "%"}, {"measurement": "Activity", "setting": "[22]", "result": 64, "unit": "%"}, {"measurement": "IC50", "setting": "BT-483 [23]", "result": 13.3, "unit": "µM"}, {"measurement": "Activity", "setting": "[24]", "result": 60, "unit": "%"}, {"measurement": "Activity", "setting": "[25]", "result": 67, "unit": "%"}, {"measurement": "Activity", "setting": "[26]", "result": 73, "unit": "%"}]}
